In patent US6894058B1, “Use of 3-hydroxy-3-methylgutaryl coenzym a reductase inhibitors for the manufacture of a medicament for the treatment of diabetic neuropathy” (AstraZeneca AB, priority 1999, dated 2005):

Legend:
Diabetic rats [1] = experiment: Sciatic nerve motor conduction velocity in streptozotocin-diabetic rats; format: in vivo, Sprague-Dawley rats; settings: for Sciatic Nerve Motor Conduction Velocity: group mean ± SEM (number of rats in brackets); for nerve conduction velocity (NCV), effect in words: animal model of diabetic neuropathy
Method: Motor nerve conduction velocity was measured (as previously described by Cameron et al, Diabetologia, 1993, Vol. 36, pages 299-304) between sciatic notch and knee in the nerve branch to tibialis anterior muscle, which is representative of the whole sciatic nerve in terms of susceptibility to diabetes and treatment effects.

Diabetic rats [2] = experiment: Saphenous nerve sensory conduction velocity in streptozotocin-diabetic rats; format: in vivo, Sprague-Dawley rats; settings: for Saphenous Nerve Sensory Conduction Velocity: group mean ± SEM (number of rats in brackets)
Method: Sensory conduction velocity in saphenous nerve was measured between the groin and ankle (as previously described by Cameron et al. Quarterly Journal of Experimental Physiology, 1989, vol. 74, pages 917-926).

Diabetic rats [3] = experiment: Sciatic nerve blood flow by hydrogen clearance microelectrode polarography in streptozotocin-diabetic rats; settings: for Sciatic Nerve Blood Flow: group mean ± SEM (number of rats in brackets); for nerve blood flow, effect in words: animal model of diabetic neuropathy
[4] = Diabetic + 2 weeks of dosing at 20 mg/kg
[5] = Diabetic + 2 weeks of dosing at 50 mg/kg
[6] = Rattus norvegicus, Dose response, 5 groups of 8 rats, dose ranged from 0.3-20 mg/kg

Row | Compound | Sciatic Nerve Motor Conduction Velocity (Diabetic rats [1]; [4]) | Sciatic Nerve Motor Conduction Velocity (Diabetic rats [1]; [5]) | nerve conduction velocity (NCV), effect in words (Diabetic rats [1]) | Saphenous Nerve Sensory Conduction Velocity (Diabetic rats [2]; [4]) | Saphenous Nerve Sensory Conduction Velocity (Diabetic rats [2]; [5]) | Sciatic Nerve Blood Flow (Diabetic rats [3]; [5]) | nerve blood flow, effect in words (Diabetic rats [3]) | ED50 (Diabetic rats [1]; [6]) [mg/kg] | ED50 (Diabetic rats [2]; [6]) [mg/kg] | Sciatic Nerve Blood Flow (Diabetic rats [3]; [4])
1 | CC(C)c1c(C(=O)Nc2ccccc2)c(-c2ccccc2)c(-c2ccc(F)cc2)n1CC[C@@H](O)C[C@@H](O)CC(=O)O [Atorvastatin, atorvastatin] | 61.53 ± 0.76 (6) | 63.59 ± 0.69 (6) | improvement | 59.77 m/s ± 0.93 (6) | 60.72 m/s ± 0.94 (6) | 16.96 ± 1.39 ml/min/100 g (6) | improvement |  |  | 
2 | CC(C)c1nc(N(C)S(C)(=O)=O)nc(-c2ccc(F)cc2)c1/C=C/[C@@H](O)C[C@@H](O)CC(=O)O [The AGENT, (E)-7-[4-(4-fluorophenyl)-6-isopropyl-2-[methyl(methylsulfonyl)amino]pyrimidin-5-yl](3R,5S)-3,5-dihydroxyhept-6-enoic acid] | 63.34 ± 0.61 (8) |  | improvement | 60.57 m/s ± 0.83 (8) |  |  | improvement | 2.3 | 0.9 | 16.19 ± 0.51 ml/min/100 g (8)
